Measurements from article PMC5584065 (Biochemical pharmacology, 2015).
Read-outs that look alike come from different tables or passages of the source.

What was measured:
[1] = target: T1, CYP2E1 (Homo sapiens, UniProt P05181); settings: read-out: Ks; styrene, free enzyme; cited from earlier work
[2] = target: T1, CYP2E1; experiment: in vitro; settings: recombinant enzyme, pH 7.4
[3] = target: T1, CYP2E1; experiment: biochemical
[4] = target: T1, CYP2E1; experiment: Impact of styrene on acetaminophen oxidation by recombinant CYP2E1; settings: 100 µM acetaminophen, styrene 50 to 500 µM
[5] = test system: Human CYP2E1; settings: cited from earlier work

T1 sequence (P05181 whole entry): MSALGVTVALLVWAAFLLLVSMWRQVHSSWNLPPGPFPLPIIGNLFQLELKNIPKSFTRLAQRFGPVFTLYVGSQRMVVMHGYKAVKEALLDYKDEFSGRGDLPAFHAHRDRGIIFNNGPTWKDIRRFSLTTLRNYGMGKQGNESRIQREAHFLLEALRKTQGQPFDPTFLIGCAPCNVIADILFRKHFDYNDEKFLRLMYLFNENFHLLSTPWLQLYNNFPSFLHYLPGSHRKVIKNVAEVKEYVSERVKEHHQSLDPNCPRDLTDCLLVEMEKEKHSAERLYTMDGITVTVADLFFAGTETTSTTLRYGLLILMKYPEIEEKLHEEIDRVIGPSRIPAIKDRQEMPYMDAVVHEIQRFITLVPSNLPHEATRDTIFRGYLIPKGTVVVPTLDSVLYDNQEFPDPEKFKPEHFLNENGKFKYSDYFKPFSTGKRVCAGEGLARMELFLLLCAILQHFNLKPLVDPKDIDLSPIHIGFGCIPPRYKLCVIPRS

SMILES | Kd [1] | activity [2] | IC50 [3] | remaining acetaminophen oxidation activity versus prediction [4] | Km ([5]; CYP2E1 expressed in HepG2 cells or purified CYP2E1 in a reconstituted system) | Km ([5]; reconstituted CYP2E1 system)
C=Cc1ccccc1 [styrene] | 375 µM | 19% | 22 µM | greater than would be predicted by simple competition |  | 
CC(=O)Nc1ccc(O)cc1 [acetaminophen] |  |  |  |  | ~600 µM | 1300 µM
